Results: publication PMC4460958 (Frontiers in Neurology, 2015)

Molecular target: T1, human dopamine transporter (hDAT) (Homo sapiens, UniProt Q01959)
T1 construct: gene SLC6A3
T1 sequence (Q01959 whole entry): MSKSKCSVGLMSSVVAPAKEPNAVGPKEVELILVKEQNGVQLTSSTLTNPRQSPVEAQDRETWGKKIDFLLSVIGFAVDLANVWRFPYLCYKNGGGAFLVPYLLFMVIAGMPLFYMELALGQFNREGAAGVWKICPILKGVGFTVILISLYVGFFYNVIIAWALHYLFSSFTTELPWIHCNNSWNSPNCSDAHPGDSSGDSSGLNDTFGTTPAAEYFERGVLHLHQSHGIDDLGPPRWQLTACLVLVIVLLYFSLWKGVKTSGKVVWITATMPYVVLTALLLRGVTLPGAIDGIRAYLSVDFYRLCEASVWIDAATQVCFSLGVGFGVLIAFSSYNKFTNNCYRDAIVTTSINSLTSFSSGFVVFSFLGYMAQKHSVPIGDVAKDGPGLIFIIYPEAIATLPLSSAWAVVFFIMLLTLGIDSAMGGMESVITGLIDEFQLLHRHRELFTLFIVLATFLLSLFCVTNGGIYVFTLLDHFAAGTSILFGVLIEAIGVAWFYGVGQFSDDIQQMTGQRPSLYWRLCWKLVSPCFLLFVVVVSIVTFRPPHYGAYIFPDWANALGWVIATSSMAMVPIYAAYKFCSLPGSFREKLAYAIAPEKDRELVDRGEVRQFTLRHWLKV

NCCc1ccc(O)c(O)c1 [DA, dopamine]
3H-dopamine uptake kinetics (Km, Vmax) in PAE cells stably expressing hDAT: Michaelis–Menten non-linear regression analysis was performed, providing transporter dopamine affinity (Km) and capacity (Vmax) for each condition
